Columns and labels:
Japanese bulrush = assay: Test Example 1: herbicidal activity, application before weed generation under submerged conditions (Table 16, symbol B); assay type: in vivo, Japanese bulrush (Schoenoplectus juncoides); settings: amount of applied herbicide 320 g/ha
In short: (§1)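 Submerged Wagner pots (alluvial soil, 4 cm water) sown with weed seeds and planted with 2.5-leaf rice seedlings; emulsifiable concentrate diluted in water applied to water surface on sowing day. Held in greenhouse at 25-30 °C; injury scored 0-5 by herbicidal rate after three weeks.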

oval-leafed pondweed = assay: Test Example 1: herbicidal activity, application before weed generation under submerged conditions (Table 16, symbol C); assay type: in vivo, oval-leafed pondweed (Monochoria vaginalis); settings: amount of applied herbicide 320 g/ha
In short: as §1

barnyard grass [1] = assay: Test Example 3: herbicidal effect by foliage application, Wagner pot (Table 18, symbol H); assay type: in vivo, barnyard grass (Echinochloa crus-galli); settings: 320 g/ha
In short: (§2)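 Plants were sown in alluvial soil held under 0.1–0.5 cm standing water and grown 14 days in a greenhouse at 25–30 °C. An emulsifiable formulation, water-diluted to the set dose, was then sprayed onto the foliage, and effects were scored three weeks later using previously defined criteria.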

Chinese sprangletop = assay: Test Example 3: herbicidal effect by foliage application, Wagner pot (Table 18, symbol D); assay type: in vivo, chinese sprangletop (Leptochloa chinensis); settings: 320 g/ha
In short: as §2

rice flat sedge = assay: Test Example 3: herbicidal effect by foliage application, Wagner pot (Table 18, symbol E); assay type: in vivo, rice flat sedge (Cyperus iria); settings: 320 g/ha
In short: as §2

southern crabgrass = assay: Test Example 4: herbicidal effect by soil treatment (Table 19, symbol F); assay type: in vivo, southern crabgrass (Digitaria ciliaris); settings: amount of applied herbicide 320 g/ha
In short: (§3)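 Pre-emergence style soil spray: seeds under ~1.5 cm sterilized diluvial soil received a uniform coat of emulsion diluted to the predetermined herbicide amount. Greenhouse 25–30° C; readout at week three on previously defined criteria.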

green foxtail [2] = assay: Test Example 4: herbicidal effect by soil treatment (Table 19, symbol G); assay type: in vivo, green foxtail (Setaria viridis); settings: amount of applied herbicide 320 g/ha
In short: as §3

barnyard grass [3] = assay: Test Example 4: herbicidal effect by soil treatment (Table 19, symbol H); assay type: in vivo, barnyard grass (Echinochloa crus-galli); settings: amount of applied herbicide 320 g/ha
In short: as §3

windgrass [4] = assay: Test Example 4: herbicidal effect by soil treatment (Table 19, symbol L); assay type: in vivo, windgrass (Apera spica-venti); settings: amount of applied herbicide 320 g/ha
In short: as §3

velvetleaf = assay: Test Example 4: herbicidal effect by soil treatment (Table 19, symbol M); assay type: in vivo, velvetleaf (Abutilon theophrasti); settings: amount of applied herbicide 320 g/ha
In short: as §3

redroot pigweed = assay: Test Example 4: herbicidal effect by soil treatment (Table 19, symbol N); assay type: in vivo, redroot pigweed (Amaranthus retroflexus); settings: amount of applied herbicide 320 g/ha
In short: as §3

green foxtail [5] = assay: Test Example 5: herbicidal effect by foliage application, plastic box (Table 20, symbol G); assay type: in vivo, green foxtail (Setaria viridis); settings: 320 g/ha, foliage application after 14-day growth, evaluated three weeks after application
In short: (§4)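 Plants were sown into sterilized diluvial soil under about 1.5 cm cover and kept in a greenhouse at 25° C. to 30° C. Fourteen days on, foliage received an even spray of the diluted emulsion. Herbicidal or crop effect was judged three weeks afterwards.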

barnyard grass [6] = assay: Test Example 5: herbicidal effect by foliage application, plastic box (Table 20, symbol H); assay type: in vivo, barnyard grass (Echinochloa crus-galli); settings: 320 g/ha, foliage application after 14-day growth, evaluated three weeks after application
In short: as §4

wild oat = assay: Test Example 5: herbicidal effect by foliage application, plastic box (Table 20, symbol I); assay type: in vivo, wild oat (Avena fatua); settings: 320 g/ha, foliage application after 14-day growth, evaluated three weeks after application
In short: as §4

windgrass [7] = assay: Test Example 5: herbicidal effect by foliage application, plastic box (Table 20, symbol L); assay type: in vivo, windgrass (Apera spica-venti); settings: 320 g/ha, foliage application after 14-day growth, evaluated three weeks after application
In short: as §4

lambsquarters = assay: Test Example 5: herbicidal effect by foliage application, plastic box (Table 20, symbol O); assay type: in vivo, lambsquarters (Chenopodium album); settings: 320 g/ha, foliage application after 14-day growth, evaluated three weeks after application
In short: as §4

persian speedwell = assay: Test Example 5: herbicidal effect by foliage application, plastic box (Table 20, symbol R); assay type: in vivo, Persian speedwell (Veronica persica); settings: 320 g/ha, foliage application after 14-day growth, evaluated three weeks after application
In short: as §4

Compound	Herbicidal effect, B: Japanese bulrush (Japanese bulrush)	Herbicidal effect, C: oval-leafed pondweed (oval-leafed pondweed)	herbicidal effect on barnyard grass (H) (barnyard grass [1])	herbicidal effect on Chinese sprangletop (D) (Chinese sprangletop)	herbicidal effect on rice flat sedge (E) (rice flat sedge)	Herbicidal effect by soil treatment, F: southern crabgrass (southern crabgrass)	Herbicidal effect by soil treatment, G: green foxtail (green foxtail [2])	Herbicidal effect by soil treatment, H: barnyard grass (barnyard grass [3])	Herbicidal effect by soil treatment, L: windgrass (windgrass [4])	Herbicidal effect by soil treatment, M: velvetleaf (velvetleaf)	Herbicidal effect by soil treatment, N: redroot pigweed (redroot pigweed)	herbicidal effect on G: green foxtail (evaluation grade 0-5) (green foxtail [5])	herbicidal effect on H: barnyard grass (evaluation grade 0-5) (barnyard grass [6])	herbicidal effect on I: wild oat (evaluation grade 0-5) (wild oat)	herbicidal effect on L: windgrass (evaluation grade 0-5) (windgrass [7])	herbicidal effect on O: lambsquarters (evaluation grade 0-5) (lambsquarters)	herbicidal effect on R: persian speedwell (evaluation grade 0-5) (persian speedwell)
COc1ccccc1-c1sc2cc(SC)ccc2c1-c1c(O)c(C)nn(C)c1=O [3-163]	3 (Herbicidal rate of 40% or more and less than 70%)	3 (Herbicidal rate of 40% or more and less than 70%)	5 (Herbicidal rate of 90% or more (almost completely withered))	5 (Herbicidal rate of 90% or more (almost completely withered))	3 (Herbicidal rate of 40% or more and less than 70%)	4 (Herbicidal rate of 70% or more and less than 90%)	3 (Herbicidal rate of 40% or more and less than 70%)	5 (Herbicidal rate of 90% or more (almost completely withered))	3 (Herbicidal rate of 40% or more and less than 70%)	1 (Herbicidal rate of 5% or more and less than 20%)	5 (Herbicidal rate of 90% or more (almost completely withered))	5 (Herbicidal rate of 90% or more (almost completely withered))	5 (Herbicidal rate of 90% or more (almost completely withered))	5 (Herbicidal rate of 90% or more (almost completely withered))	5 (Herbicidal rate of 90% or more (almost completely withered))	4 (Herbicidal rate of 70% or more and less than 90%)	5 (Herbicidal rate of 90% or more (almost completely withered))
CCCOc1ccc(-c2sc3c(F)cccc3c2-c2c(OC(=O)CCC)c(C)nn(C)c2=O)cc1 [4-010]	0 (Herbicidal rate of 5% or less (almost no effect))	3 (Herbicidal rate of 40% or more and less than 70%)	5 (Herbicidal rate of 90% or more (almost completely withered))	4 (Herbicidal rate of 70% or more and less than 90%)	5 (Herbicidal rate of 90% or more (almost completely withered))	0 (Herbicidal rate of 5% or less (almost no effect))	0 (Herbicidal rate of 5% or less (almost no effect))	0 (Herbicidal rate of 5% or less (almost no effect))	0 (Herbicidal rate of 5% or less (almost no effect))	0 (Herbicidal rate of 5% or less (almost no effect))	4 (Herbicidal rate of 70% or more and less than 90%)	3 (Herbicidal rate of 40% or more and less than 70%)	5 (Herbicidal rate of 90% or more (almost completely withered))	0 (Herbicidal rate of 5% or less (almost no effect))	0 (Herbicidal rate of 5% or less (almost no effect))	5 (Herbicidal rate of 90% or more (almost completely withered))	5 (Herbicidal rate of 90% or more (almost completely withered))

From patent publication US20230085307A1, “PYRIDAZINONE COMPOUND AND HERBICIDE” (NISSAN CHEMICAL CORPORATION, priority 2019, published 2023)
